Measurements taken from patent publication US20220071953A1, “Small Molecule Analogs Of The Protein E4ORF1 In The Treatment And Prevention Of Metabolic Disorders” (Texas Tech University System, priority 2019, published 2022).
“Also recorded” adds a separate entry of the source.

Key:
3T3L1 preadipocytes = experiment: Glucose uptake in 3T3L1 preadipocytes treated with E4orf1 analogs; type: cell-based; settings: analogs 2 μl/ml of media, 24 hr in dark, vs DMSO, repeated 3 times
Protocol: FIG. 3 illustrates that selected E4orf1 chemical analogs increase glucose uptake. 3T3L1 preadipocytes were treated with dimethyl sulfoxide (DMSO) or insulin or treated with analogs BT324, BT325, BT326, BT327, BT328, and BT329. The treatments were compared using one way analysis of variance (ANOVA) and post hoc Tukey's test. Groups sharing same letters are not statistically significant.
(§1) 3T3L1 preadipocytes (passage number 8 below) were used to treat with analogs. As control, cells were treated with equal volumes of DMSO. As positive control, cells were treated with 100 nM insulin. Cells at 70% confluency were treated with analogs (2 μl/ml of media) in dark for 24 hr. Post 24 hr treatment, cells were used either to determine glucose uptake or to obtain cell lysates for determining pAKT abundance by Western blot analysis.

pAkt/Akt = experiment: Western blot for pAkt/Akt in cell lysates of treated 3T3L1 preadipocytes; type: cell-based; settings: 24 hr incubation, vs DMSO
Protocol: FIG. 4 illustrates that the E4orf1 chemical analogs that increase glucose uptake also increase pAkt levels—the underlying mechanism for increasing cellular glucose uptake. 3T3L1 preadipocytes were treated with DMSO or insulin or with analogs BT324, BT325, BT327, or BT329. Post 24 hr incubation in the dark, cell lysates were collected and 20 μg of protein was loaded and probed for pAkt/Akt. Band intensities were analyzed using Image J software. Groups sharing same letters are not statistically significant.
as §1

[1] = tested on: 3T3-L1 pre-adipocytes, mature adipocytes and murine skeletal muscle cells; experiment: In vitro screening of small molecules for cellular glucose uptake; type: cell-based; settings: 20 μM/well, 24 h; for greater glucose uptake compared to control: other replications not presented; for increase in cellular glucose: tested 3 or more times in different cell types
Protocol: Next, over time, Applicants tested cellular glucose uptake with 41 different E4orf1 analog small molecules in 3T3-L1 pre-adipocytes, mature adipocytes and murine skeletal muscle cells. Cells were exposed to 20 μM/well of E4orf1 analogs. Glucose uptake by cells was determined 24 h later. Insulin and human adenovirus Ad36 were used as positive controls for glucose uptake. The * indicates statistical significance after Bonferroni correction for multiple comparisons.
Applicants conducted glucose uptake assays for compounds several separate times. BN #3 and BT #141 had about 70% greater glucose uptake compared to control in other replications not presented herein.

[2] = tested on: C57BL/6J male mice on a 60% kcal high-fat diet; experiment: Glucose tolerance test (GTT) in high-fat diet fed mice; type: in vivo; settings: daily injection of 4 mg/kg, GTT 7 and/or 14 days post-treatment, vs DMSO control mice
Protocol: (§2) To determine improvement in glucose disposal in vivo, 10 wk old C57BL/6J male mice (Jax Laboratories) on a 60% kcal high-fat diet (Research diets, Inc.) since 6 weeks of age were divided into weight-matched groups. In individual experiments, mice were treated with daily injection of 4 mg/kg of respective small molecules (BN #3, BT #141, BT #143 and BT #181) or DMSO alone as control. Improvement in glycemic control was determined by glucose tolerance test (GTT) performed at baseline (prior to treatment), 7 days and/or 14 days post-treatment. Insulin-independent action of the small molecules was also measured by collecting blood during GTT and quantifying serum insulin by enzyme-linked immunosorbent assay (ELISA).

[3] = tested on: C57BL/6J male mice on a 60% kcal high-fat diet; experiment: Serum insulin by ELISA during GTT in high-fat diet fed mice; type: in vivo; settings: daily injection of 4 mg/kg, vs DMSO control mice
Protocol: as §2

Structure (SMILES) | glucose uptake (3T3L1 preadipocytes) | pAkt/Akt (pAkt/Akt) | greater glucose uptake compared to control [1] | increase in cellular glucose [1] | glucose clearance / glycemic control (GTT) ([2]; 4 mg/kg) | insulin secretion [3] | glucose clearance / glycemic control (GTT) ([2]; listed as BN #141, 4 mg/kg)
O=C(O)c1cc2cc(Cl)ccc2oc1=O [BT325] | significantly increased glucose uptake | significant increase in pAkt/Akt | – | – | – | – | –
Cc1cc(C(C#N)Nc2ccc(B3OC(C)(C)C(C)(C)O3)cc2)no1 (stereo not shown) [BN #3] | – | – | about 70% | consistently significant increase in cellular glucose | improved glycemic control; also recorded: improved glucose disposal | lower insulin secretion | –
C#Cc1ccc(/C(N)=N/O)cc1 [BT329] | significantly increased glucose uptake | significant increase in pAkt/Akt | – | – | – | – | –
O=C(O)c1cc2cc(Cl)ccc2[nH]c1=O [BT327] | significantly increased glucose uptake | significant increase in pAkt/Akt | – | – | – | – | –
COC(=O)c1cc2cc(Cl)ccc2oc1=O [BT324] | significantly increased glucose uptake | significant increase in pAkt/Akt | – | – | – | – | –
CC1(C)OB(c2ccc(C(C#N)Nc3ccc(O)cc3)cc2)OC1(C)C (stereo not shown) [BT #141] | – | – | about 70% | consistently significant increase in cellular glucose | improved glycemic control | – | improved glucose disposal
